Results from patent US11484543B2, “Compositions and methods for diagnosing and treating diseases and disorders associated with mutant KCNJ5” (The Rockefeller University, priority 2017, dated 2022).

Columns and labels:
[1] = test system: CYP11B2 (aldosterone synthase) expression, H295R cells expressing KCNJ5^WT; experiment: Real-time PCR of CYP11B2 in H295R cells transfected with KCNJ5^WT; format: cell-based, human; details: 5, 20 or 50 μM for 18 h
Method: (§1) H295R cells were cultured in DMEM/F12, HEPES (Gibco) supplemented with 2.5% Ultroser G (Pall Biosepra), 1% ITS+ Premix (Corning) and 1% Penicillin/Streptomycin (Gibco). Plasmids were purified using the Endofree Maxi Kit (Qiagen). […] 3×10^6 cells were transfected with 3 μg pIRES eGFP containing no insert, WT or mutant KCNJ5 using an Amaxa Nucleofector I (program P-20) and the Nucleofector Kit R (Lonza). Cells were allowed to recover briefly in RPMI 1640 medium (Gibco). […] After an additional 18 h, RNA was harvested using the RNeasy Mini Kit (Qiagen) following the manufacturer's instructions. 300 ng RNA were transcribed using the Quantitect Reverse Transcription Kit (Qiagen). Expression levels of CYP11B2 and GAPDH were quantified in triplicates in a 7300 Real-Time PCR System (Applied Biosystems) using the Taqman Gene Expression Master Mix and assays Hs01597732_m1 (CYP11B2) or HS02758991_g1 (GAPDH) (all Applied Biosystems). DDCT values were calculated by normalization of DCT values, using the average DCT of vehicle treated empty vector-transfected cells as a reference.
(§2) This cell line is derived from a human adrenocortical carcinoma and represents a commonly used in vitro model of zona glomerulosa aldosterone production (Wang et al. 2012, Horm. Metab. Res. 44:245-250). […]

[2] = test system: CYP11B2 (aldosterone synthase) expression, H295R cells expressing KCNJ5^L168R; experiment: Real-time PCR of CYP11B2 in H295R cells transfected with KCNJ5^L168R; format: cell-based, human; details: 5, 20 or 50 μM for 18 h; p=0.0034 at 20 μM
Method: as §1, §2

[3] = target: T1, KCNJ5^WT (Homo sapiens, UniProt P48544); experiment: Perforated whole-cell patch clamp, KCNJ5^WT homotetramers in HEK293T cells; format: cell-based; details: increasing concentrations, −80 mV (FIG. 12D)
T1 construct: expressed in transfected cells
T1 sequence (P48544 1-419): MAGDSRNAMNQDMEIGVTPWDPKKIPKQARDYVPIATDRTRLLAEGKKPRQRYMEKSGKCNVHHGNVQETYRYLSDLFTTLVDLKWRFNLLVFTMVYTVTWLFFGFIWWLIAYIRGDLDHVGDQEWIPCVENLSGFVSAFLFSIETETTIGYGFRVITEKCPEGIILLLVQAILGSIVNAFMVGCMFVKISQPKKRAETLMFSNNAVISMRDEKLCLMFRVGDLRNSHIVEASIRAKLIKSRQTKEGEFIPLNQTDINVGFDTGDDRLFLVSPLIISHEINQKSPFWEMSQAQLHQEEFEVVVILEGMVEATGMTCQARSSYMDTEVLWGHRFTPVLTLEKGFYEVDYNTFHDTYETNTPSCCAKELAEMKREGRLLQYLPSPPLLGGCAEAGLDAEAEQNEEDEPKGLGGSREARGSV
Method: Cation currents were measured with the perforated whole cell recording technique (140 mM NaCl/5 mM KCl bath solution, 140 mM KCl pipette solution for KCNJ5^G151R; 140 mM NaCl/5 mM KCl bath solution, 140 mM KCl, 1.8 mM MgCl2 pipette solution for KCNJ5^L168R; 140 mM KCl bath and pipette solution for KCNJ5^WT). […] Errors represent standard error of the mean, N=3 to 6. […] In contrast, WT currents are not inhibited.
HEK293T cells (American Type Culture Collection) were used for transient expression of GFP-tagged KCNJ5 or KCNJ3. The cells were grown in Dulbecco's modified Eagle medium (DMEM; Invitrogen) supplemented with 10% FBS (Invitrogen) in 5% CO2 and 95% air at 37° C. […]
Within 24 hr after transfection, the cells were treated with trypsin-containing medium (TrypLE Express) (Gibco) for 10 minutes to detach the cells. […] Fluorescence signal (an indication of positive transfection) was detected with an intensified video imaging system including a SIT 68 camera (Long Island Industries). […] After forming a high resistance seal (>2 GΩ), the membrane capacitance was monitored until the whole-cell patch configuration was formed. The cell membrane capacitance was measured and compensated. The K/cation currents were measured from −80 mV to 20 mV with 20 mV steps by an Axon 200A patch-clamp amplifier. […]

CC[C@H]1OC(=O)[C@H](C)[C@@H](O[C@H]2C[C@@](C)(OC)[C@@H](O)[C@H](C)O2)[C@H](C)[C@@H](O[C@@H]2O[C@H](C)C[C@H](N(C)C)[C@H]2O)[C@](C)(O)C[C@@H](C)/C(=N\OCOCCOC)[C@H](C)[C@@H](O)[C@]1(C)O [Roxithromycin, roxithromycin]
expression of CYP11B2 [1]: virtually no change
expression of CYP11B2 [2]: inhibited expression of CYP11B2 in a dose-dependent fashion
inhibition of WT currents [3]: not inhibited
